Patent publication US20170190671A1, “BIS(ARYL)CATECHOL DERIVATIVES AS HERBICIDES” (E I DU PONT DE NEMOURS AND COMPANY, priority 2014, published 2017)

Tests used:
Test in all cases: Test D postemergence
Assay type in all cases: in vivo
Details in all cases: scale 0 to 100
[1] = test system: green foxtail (Setaria viridis)
In short: (§1)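 Visual injury scored 0–100 (0 = no effect, 100 = complete control) against controls 14 to 21 days after treatment in a controlled growth environment. Compounds were applied in surfactant-containing non-phytotoxic solvent, preemergence onto silt loam-sown seeds or postemergence onto 1- to 4-leaf plants.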

[2] = test system: wild radish (Raphanus raphanistrum)
In short: as §1

[3] = test system: wild buckwheat (Polygonum convolvulus)
In short: as §1

[4] = test system: spring barley (Hordeum vulgare)
In short: as §1

[5] = test system: windgrass (Apera spica-venti)
In short: as §1

[6] = test system: wild mustard (Sinapis arvensis)
In short: as §1

[7] = test system: canarygrass (Phalaris minor)
In short: as §1

[8] = test system: deadnettle (henbit deadnettle, Lamium amplexicaule)
In short: as §1

[9] = test system: field poppy (Papaver rhoeas)
In short: as §1

[10] = test system: chamomile (scentless chamomile, Matricaria inodora)
In short: as §1

[11] = test system: bluegrass (annual bluegrass, Poa annua)
In short: as §1

[12] = test system: spring wheat (Triticum aestivum)
In short: as §1

[13] = test system: blackgrass (Alopecurus myosuroides)
In short: as §1

[14] = test system: lambsquarters (Chenopodium album)
In short: as §1

[15] = test system: cutleaf geranium (Geranium dissectum)
In short: as §1

kochia (Kochia scoparia) = test system: kochia (Kochia scoparia)
In short: as §1

[16] = test system: pigweed (Amaranthus retroflexus)
In short: as §1

[17] = test system: winter barley (Hordeum vulgare)
In short: as §1

[18] = test system: Italian ryegrass (Lolium multiflorum)
In short: as §1

[19] = test system: Russian thistle (Salsola kali)
In short: as §1

[20] = test system: oilseed rape (Brassica napus)
In short: as §1

SMILES: FC(F)(F)c1cnc(Oc2c(Br)cccc2Oc2ncc(Cl)cn2)nc1 [Compound 24]
- Plant response rating, Foxtail, Green ([1]; 16 g ai/ha): 15
- Plant response rating, Foxtail, Green ([1]; 31 g ai/ha): 15
- Plant response rating, Foxtail, Green ([1]; 62 g ai/ha): 20
- Plant response rating, Foxtail, Green ([1]; 125 g ai/ha): 30
- Plant response rating, Radish, Wild ([2]; 16 g ai/ha): 75
- Plant response rating, Radish, Wild ([2]; 31 g ai/ha): 75
- Plant response rating, Radish, Wild ([2]; 62 g ai/ha): 95
- Plant response rating, Radish, Wild ([2]; 125 g ai/ha): 100
- Plant response rating, Buckwheat, Wild ([3]; 16 g ai/ha): 60
- Plant response rating, Buckwheat, Wild ([3]; 31 g ai/ha): 60
- Plant response rating, Buckwheat, Wild ([3]; 62 g ai/ha): 75
- Plant response rating, Buckwheat, Wild ([3]; 125 g ai/ha): 95
- Plant response rating, Barley, Spring ([4]; 16 g ai/ha): 15
- Plant response rating, Barley, Spring ([4]; 31 g ai/ha): 20
- Plant response rating, Barley, Spring ([4]; 62 g ai/ha): 20
- Plant response rating, Barley, Spring ([4]; 125 g ai/ha): 25
- Plant response rating, Windgrass ([5]; 16 g ai/ha): 10
- Plant response rating, Windgrass ([5]; 31 g ai/ha): 15
- Plant response rating, Windgrass ([5]; 62 g ai/ha): 25
- Plant response rating, Windgrass ([5]; 125 g ai/ha): 35
- Plant response rating, Mustard, Wild ([6]; 16 g ai/ha): 50
- Plant response rating, Mustard, Wild ([6]; 31 g ai/ha): 80
- Plant response rating, Mustard, Wild ([6]; 62 g ai/ha): 70
- Plant response rating, Mustard, Wild ([6]; 125 g ai/ha): 85
- Plant response rating, Canarygrass ([7]; 16 g ai/ha): 30
- Plant response rating, Canarygrass ([7]; 31 g ai/ha): 35
- Plant response rating, Canarygrass ([7]; 62 g ai/ha): 45
- Plant response rating, Canarygrass ([7]; 125 g ai/ha): 45
- Plant response rating, Deadnettle ([8]; 16 g ai/ha): 55
- Plant response rating, Deadnettle ([8]; 31 g ai/ha): 70
- Plant response rating, Deadnettle ([8]; 62 g ai/ha): 75
- Plant response rating, Deadnettle ([8]; 125 g ai/ha): 85
- Plant response rating, Field Poppy ([9]; 16 g ai/ha): 70
- Plant response rating, Field Poppy ([9]; 31 g ai/ha): 80
- Plant response rating, Field Poppy ([9]; 62 g ai/ha): 90
- Plant response rating, Field Poppy ([9]; 125 g ai/ha): 95
- Plant response rating, Chamomile ([10]; 16 g ai/ha): 5
- Plant response rating, Chamomile ([10]; 31 g ai/ha): 5
- Plant response rating, Chamomile ([10]; 62 g ai/ha): 10
- Plant response rating, Chamomile ([10]; 125 g ai/ha): 15
- Plant response rating, Bluegrass ([11]; 16 g ai/ha): 15
- Plant response rating, Bluegrass ([11]; 31 g ai/ha): 20
- Plant response rating, Bluegrass ([11]; 62 g ai/ha): 35
- Plant response rating, Bluegrass ([11]; 125 g ai/ha): 40
- Plant response rating, Wheat, Spring ([12]; 16 g ai/ha): 10
- Plant response rating, Wheat, Spring ([12]; 31 g ai/ha): 15
- Plant response rating, Wheat, Spring ([12]; 62 g ai/ha): 20
- Plant response rating, Wheat, Spring ([12]; 125 g ai/ha): 20
- Plant response rating, Blackgrass ([13]; 16 g ai/ha): 25
- Plant response rating, Blackgrass ([13]; 31 g ai/ha): 30
- Plant response rating, Blackgrass ([13]; 62 g ai/ha): 35
- Plant response rating, Blackgrass ([13]; 125 g ai/ha): 45
- Plant response rating, Lambsquarters ([14]; 16 g ai/ha): 35
- Plant response rating, Lambsquarters ([14]; 31 g ai/ha): 45
- Plant response rating, Lambsquarters ([14]; 62 g ai/ha): 60
- Plant response rating, Lambsquarters ([14]; 125 g ai/ha): 75
- Plant response rating, Geranium, Cutleaf ([15]; 16 g ai/ha): 20
- Plant response rating, Geranium, Cutleaf ([15]; 31 g ai/ha): 30
- Plant response rating, Geranium, Cutleaf ([15]; 62 g ai/ha): 45
- Plant response rating, Geranium, Cutleaf ([15]; 125 g ai/ha): 65
- Plant response rating, Kochia (kochia (Kochia scoparia); 16 g ai/ha): 40
- Plant response rating, Kochia (kochia (Kochia scoparia); 31 g ai/ha): 65
- Plant response rating, Kochia (kochia (Kochia scoparia); 62 g ai/ha): 80
- Plant response rating, Kochia (kochia (Kochia scoparia); 125 g ai/ha): 95
- Plant response rating, Pigweed ([16]; 16 g ai/ha): 85
- Plant response rating, Pigweed ([16]; 31 g ai/ha): 95
- Plant response rating, Pigweed ([16]; 62 g ai/ha): 98
- Plant response rating, Pigweed ([16]; 125 g ai/ha): 100
- Plant response rating, Barley, Winter ([17]; 16 g ai/ha): 10
- Plant response rating, Barley, Winter ([17]; 31 g ai/ha): 15
- Plant response rating, Barley, Winter ([17]; 62 g ai/ha): 20
- Plant response rating, Barley, Winter ([17]; 125 g ai/ha): 25
- Plant response rating, Ryegrass, Italian ([18]; 16 g ai/ha): 15
- Plant response rating, Ryegrass, Italian ([18]; 31 g ai/ha): 20
- Plant response rating, Ryegrass, Italian ([18]; 62 g ai/ha): 25
- Plant response rating, Ryegrass, Italian ([18]; 125 g ai/ha): 35
- Plant response rating, Russian Thistle ([19]; 16 g ai/ha): 10
- Plant response rating, Russian Thistle ([19]; 31 g ai/ha): 25
- Plant response rating, Russian Thistle ([19]; 62 g ai/ha): 30
- Plant response rating, Russian Thistle ([19]; 125 g ai/ha): 55
- Plant response rating, Oilseed Rape ([20]; 16 g ai/ha): 65
- Plant response rating, Oilseed Rape ([20]; 31 g ai/ha): 70
- Plant response rating, Oilseed Rape ([20]; 62 g ai/ha): 75
- Plant response rating, Oilseed Rape ([20]; 125 g ai/ha): 80
